In patent publication US10647680B2, “Urea compound, preparation method therefor and medical use thereof” (Ancureall Pharmaceutical (Shanghai) Co., Ltd., priority 2016, dated 2020):

Columns and labels:
Format in all cases: cell-based
[1] = tested on: HCC827 (EGFR exon19 E746-A750 deletion); experiment: In vitro growth inhibition (GI50), HCC827; conditions: Homo sapiens; HCC827, EGFR DelE746-A750
From the text: (§1) Tumor cell line is an effective cell model for studying the inhibition of tumor cell growth or proliferation in vitro. In the present invention, a representative tumor cell line was selected to determine the cell growth inhibition activity of the present compound. All cell lines used were from ATCC, DSMZ, and the Cell Bank of the Chinese Academy of Sciences. Cell culture conditions and methods were in accordance with the requirements of each cell line. Cells were subcultured in vitro for no more than 3 passages each time, and as required, single-clone purification and identification of cell lines could be carried out.
(§2) The cell culture media used were RPMI1640 (Gibco), MEM (Gibco), McCOY'S5A (Gibco), and IMDM (Gibco). The complete medium was prepared by supplement with 5˜20% fetal calf serum (Gibco), 1% double-antibiotics (10000 units/mL penicillin and 10000 units/mL), 2 mM glutamine or 1 mM sodium pyruvate, respectively.
Human epidermal cancer cell line A431 (EGFR WT, amplification and high expression, from Shanghai Cell Bank of Chinese Academy of Sciences and ATCC), human lung cancer cell line NCI-H292 (EGFR WT, purchased from Shanghai Cell Bank of Chinese Academy of Sciences), NSCLC cell lines PC-9 and HCC827 (EGFR exon19 E746-A750 deletion, two cell lines are sensitive to the first-generation EGFR PTK inhibitor), NSCLC cell line NCI-H1975 (EGFR L858R/T790M and the first-generation EGFR inhibitor resistance, ATCC) were cultured with 1×RPMI1640 complete medium (supplement with 10% FBS), respectively.
(§3) Adherent cells were digested with 0.25% pancreatin-EDTA (Gibco). The suspension cells were collected by centrifugation. The supernatant was discarded and the cell pellet was resuspended and counted. Different cell concentrations (5˜10×10^4 cells/mL) were prepared according to the growth cycle of each cell line and then seeded on a 96-well plate (Corning), 100 μL/well. The cells were incubated overnight at 37° C., 5% CO2. The compounds were added to the cells on the second day with 2 wells in parallel. The final concentration of organic solvent shall not exceed 1%. The cells were continually incubated for 3 to 5 days, and then subjected to MTT assay.
(§4) The compound of the present invention and the control compound were dissolved in DMSO (Sigma) respectively, with the purity of more than 98%. The compound was stored in a concentration of 10 mM at −20° C. and diluted to 2- or 10-fold series prior to use.
(§5) Dojindo CCK8 reagent kit was used as MTT assay. THERMO […] FC meter was used as microplate reader.
(§6) For adherent cells, culture medium was removed and immediately replaced with the fresh prepared medium which contains 10% CCK8 reagent (100 μL/well). For the suspension cells, CCK8 was directly added to 10% of the final concentration. The cells were continually incubated for 1˜4 h. When a dark yellow color could be observed in the solvent control wells, the absorbance value at OD450 nm was measured and the cell growth rate was calculated according to the following formula: Cell Growth Rate (%)=100*(T−T0)/(C−T0) T=optical density of drug treatment cell well—optical density of blank control well; T0=optical density of cell well before drug treatment—optical density of blank control well; C=optical density of cell well of solvent control group—optical density of blank control well. The concentration value of 50% inhibition of cell growth (GI50) was calculated according to the drug concentration and cell growth rate curve. The experiment was independently repeated 1˜3 times, and subject to biological statistical analysis. 4. Experimental Results
Tumor cell growth inhibition test was performed by selecting representative compounds (compounds 4, 11, 12, 16, 27, 68, 71, 77, 79, 89 and 116 of the present invention). The initial concentration of the compound was 5,000 nM, then it was serially diluted by 2-fold or 10-fold to 0.01 nM. The GI50 value of each test compound was calculated according to the GI50 assay and calculation method. […]

[2] = tested on: HCC1954 (HER2/ErbB2 amp); experiment: In vitro growth inhibition (GI50), HCC1954; conditions: Homo sapiens
From the text: as §1, §2
Human gastric cancer cell line NCI-N87 (HER2/ErbB2 amp, ATCC), human breast cancer cell line HCC1954 (HER2/ErbB2 amp, ATCC) and ZR-75-30 (HER2/ErbB2 amp, ATCC), human adenocarcinoma cell line AU565 (HER2/ErbB2 amp, ATCC), human lung squamous cell carcinoma cell line NCI-H2170 (HER2/ErbB2 amp, ATCC), human bronchioalveolar adenocarcinoma cell line NCI-H1781 (HER2/ErbB2 Ins G776V,C mutant type, ATCC) were cultured with a 1×RPMI1640 complete medium (10% FBS), respectively. Human lung adenocarcinoma cell line Calu-3 (HER2/ErbB2 amp, ATCC) was cultured with 1×MEM, 10% FBS, 1% double antibody, 1% NEAA (Gibco), 2 mM glutamine and 1 mM sodium pyruvate. The human breast cancer cell line SK-BR-3 (HER2/ErbB2 amp, ATCC) was cultured with a McCOY'S5A complete medium (10% FBS).
as §3, §4, §5, §6
Tumor cell growth inhibition test was performed by selecting representative compounds (compounds 4, 11, 12, 16, 27, 68, 71, 77, 79, 89 and 116 of the present invention). […]

[3] = tested on: NCI-H2228 (expressing EML4-ALK fusion gene); experiment: In vitro growth inhibition (GI50), NCI-H2228; conditions: Homo sapiens
From the text: as §1, §2
Human non-small cell lung cancer cell line NCI-H2228 (expressing EML4-ALK fusion gene, ATCC) and human anaplastic large cell lymphoma cell line Karpas-299 (expressing NPM-ALK fusion gene, ATCC) were cultured in complete medium comprising 1×RPMI1640 (10% FBS), respectively. Neuroblastoma cell line SH-SY5Y (expressing ALK F1174L mutant protein, Shanghai Cell Bank, Chinese Academy of Sciences) was cultured in MEM complete medium (1×MEM, 10% FBS, 1% NEAA, 1 mM sodium pyruvate).
as §3, §4, §5, §6
Tumor cell growth inhibition test was performed by selecting representative compounds (compounds 4, 11, 12, 16, 27, 68, 71, 77, 79, 89 and 116 of the present invention). The initial concentration of the compound was 5,000 nM, then it was serially diluted by 2-fold or 10-fold to 0.01 nM. The GI50 value of each test compound was calculated according to the GI50 assay and calculation method. The experiments were repeated 1 to 3 times, and data were subjected to biological statistical analysis.

SMILES | GI50 [1] | GI50 [2] | GI50 [3]
CC(C)(C)c1cc(NC(=O)Nc2ccc(-n3cnc4ccc(OCCN5CCOCC5)cc43)cc2)no1 [Compound 27, 1-(5-tert-butyl-isoxazol-3-yl)-3-{4-[6-(2morpholin-4-yl-ethoxyl)-benzimidazol-1-yl]-phenyl}-urea] | > 2.5 µM | > 2.5 µM | > 2.5 µM
CC(C)(C)c1cc(N)n(C(=O)Nc2ccc(-n3cnc4ccccc43)cc2)n1 [Compound 116, 5-amino-3-tert-butyl-pyrazol-1-carboxylic acid (4-benzimidazol-1-yl-phenyl)-amide] | > 2.5 µM | > 2.5 µM | > 2.5 µM
CC(C)(C)c1cc(NC(=O)Nc2ccc(-n3cnc4cc(OCCN5CCOCC5)ccc43)cc2)no1 [Compound 16, 1-(5-tert-butyl-isoxazol-3-yl)-3-{4-[5-(2-morpholin-4-yl-ethoxyl)-benzimidazol-1-yl]-phenyl}-urea] | > 2.5 µM | > 2.5 µM | > 2.5 µM
COCCOc1ccc2c(c1)ncn2-c1ccc(NC(=O)Nc2cc(C(C)(C)C)n[nH]2)cc1 [Compound 77, 1-(5-tert-butyl-2H-pyrazol-3-yl)-3-{4-[5-(2-methoxyl-ethoxyl)-benzimidazol-1-yl]-phenyl}-urea] | > 2.5 µM | > 2.5 µM | > 2.5 µM
CC(C)(C)c1cc(NC(=O)Nc2ccc(-n3cnc4cc(O)ccc43)cc2)no1 [Compound 4, 1-(5-tert-butyl-isoxazol-3-yl)-3-[4-(5-hydroxy-benzimidazol-1-yl)-phenyl]-urea] | > 2.5 µM | > 2.5 µM | > 2.5 µM
CC(C)(C)c1cc(NC(=O)Nc2ccc(-n3cnc4cc(OCCO)ccc43)cc2)[nH]n1 [Compound 79, 1-(5-tert-butyl-2H-pyrazol-3-yl)-3-{4-[5-(2-hydroxy-ethoxyl)-benzimidazol-1-yl]-phenyl]urea] | > 2.5 µM | > 2.5 µM | > 2.5 µM

Results, then the molecule that gave them:

GI50 [1] | GI50 [2] | GI50 [3] | SMILES
> 2.5 µM | > 2.5 µM | > 2.5 µM | CC(C)(C)c1cc(NC(=O)Nc2ccc(-n3cnc4cc(OCCO)ccc43)cc2)no1 [Compound 11, 1-(5-tert-butyl-isoxazol-3-yl)-3-{4-[5-(2-hydroxy-ethoxyl)-benzimidazol-1-yl]-phenyl]-urea]
> 2.5 µM | > 2.5 µM | > 2.5 µM | CC(C)(C)c1cc(NC(=O)Nc2ccc(-n3cnc4ccccc43)cc2)[nH]n1 [Compound 68, 1-(4-benzimidazol-1-yl-phenyl)-3-(5-tert-butyl-2H-pyrazol-3-yl)-urea]
> 2.5 µM | > 2.5 µM | > 2.5 µM | CC(C)(C)c1cc(NC(=O)Nc2ccc(-n3cnc4cc(OCCN5CCOCC5)ccc43)cc2)[nH]n1 [Compound 89, 1-(5-tert-butyl-2H-pyrazol-3-yl)-3-{4-[5-(2-morpholin-4-yl-ethoxyl)-benzimidazol-1-yl]-phenyl}-urea]
> 2.5 µM | > 2.5 µM | > 2.5 µM | COc1ccc2c(c1)ncn2-c1ccc(NC(=O)Nc2cc(C(C)(C)C)n[nH]2)cc1 [Compound 71, 1-(5-tert-butyl-2H-pyrazol-3-yl)-3-[4-(5-methoxyl-benzimidazol-1-yl)-phenyl]-urea]
